Test results: patent US9128081B2, “TDP-43-storing cell model” (TOKYO METROPOLITAN INSTITUTE OF MEDICAL SCIENCE, priority 2008, dated 2015)
“Also recorded” adds a separate entry of the source. Where a SMILES comes first, the peptide text is derived from it. The star is where a group is joined. Cbz = O=C(OCc1ccccc1)*

What was measured:
Format in all cases: cell-based, human
[1] = tested on: SH-SY5Y cells expressing NLS2-deficient mutant TDP-43; assay: Protease inhibitor treatment of NLS2-deficient mutant-expressing cells, confocal laser microscope; conditions: inhibitor 20 μM, 6 hours; for inclusion formation / expression pattern, anti-TARDBP staining: 37° C.
Procedure: (§1) Each of the above-described various plasmid vectors (pcDNA3 or pEGFP system, 1 μg) was integrated into SH-SY5Y cell using FuGENE6 transfection reagent (Roche Diagnostics). FuGENE6 at 3-fold volume of the total plasmid amount was mixed with the plasmid, left to stand at room temperature for 15 minutes, and then mixed with the cell solution. The resultant was cultured for 2-3 days, and used for preparation of cell lysates or immunohistological staining.
(§2) SH-SY5Y cells cultured on glass covers were mixed with each of the various expression vectors (1 μg) and added in the presence of FuGENE6. After two days of cultivation, cell immobilization or protease inhibitor treatment was carried out. In the protease inhibitor treatment, a final concentration of 20 μM of MG132 (proteasome inhibitor) or carbobenzoxy-leucyl-leucinal (zLL: calpain inhibitor) was added to the cell, and cultured at 37° C. for 6 hours. Thereafter, the cell was immobilized in a 4% paraformaldehyde solution. […] After washing with 50 mM Tris-HCl containing 0.05% Tween 20 and 150 mM NaCl (pH 7.5) (TBS-T), the cell was caused to react with a fluorescence-labeled secondary antibody at 37° C. for an hour. […] The resultant was sealed on a glass slide, and then analyzed with a confocal laser microscope (Carl Zeiss).
(§3) The primary antibody and the fluorescence-labeled secondary antibody used were as follows. • Primary antibody: • anti-TARDBP (ProteinTech, 1:1000 dilution); • anti-pS409/410 (antibody (antibody that specifically binds to TDP-43 aggregates) obtained by using, as an antigen, a peptide in which Ser residues at positions 409 and 410 of TDP-43 are both phosphorylated, 1:500 dilution); • anti-ubiquitin (MAB1510, CHEMICON, 1:500 dilution) • Fluorescence-labeled secondary antibody: • FITC-labeled anti-rabbit IgG (anti-rabbit immunoglobulin, FITC-labeled, Product number: F9887, Sigma, 1:500 dilution); • rhodamine-labeled anti-mouse IgG (anti-mouse immunoglobulin, TRITC-labeled, Product number: T2402, Sigma, 1:500 dilution) […]

[2] = tested on: SH-SY5Y cells expressing wild-type TDP-43; assay: Protease inhibitor treatment of wild-type TDP-43-expressing cells, confocal laser microscope; conditions: inhibitor 20 μM, 37° C., 6 hours
Procedure: as §1
as §2, with “Zeiss). […]” for “Zeiss).”

[3] = tested on: SH-SY5Y cells expressing NLS1-deficient mutant TDP-43; assay: Protease inhibitor treatment of NLS1-deficient mutant-expressing cells, confocal laser microscope; conditions: inhibitor 20 μM, 6 hours; for inclusion formation, anti-pS409/410 staining: inclusion diameter about 10 μm
Procedure: as §1, §2, §3

[4] = tested on: SH-SY5Y cells expressing pcDNA3-TDP delta NLS1&2 (TDP delta NLS1&2); assay: Suppression of formation of intracellular TDP-43 inclusions by low-molecular compounds (TDP delta NLS1&2); conditions: enhanced concentration-dependently, 3 days after addition
Procedure: (§4) The cell used was human neuroblast cell line SH-SY5Y, while pEGFP-TDP 162-414 (GFP-TDP 162-414) and pcDNA3-TDP delta NLS1&2 (TDP delta NLS1&2) which gave more significant formation of intracellular inclusions among various TDP-43 mutants were used to search for an inhibitor for the above-described inclusion formation.
(§5) Gene transfection into SH-SY5Y cell was carried out according to the method described in “Cultivation of SH-SY5Y cell and integration of plasmid vector” above, where 1 μg of each of the various plasmids was transfected into the cell with three-fold volume of a transfection reagent (FuGENE6: 3 μl).
(§6) Treatment with a candidate inhibitor took place two hours after gene transfection. […] The concentrations of methylene blue were determined to take the above concentrations by considering the concentration conditions that have no damage on cell proliferation. On the other hand, the concentrations of dimebon were determined by referring to a publication (Jun Wu et al., Molecular Neurodegeneration, 2008, vol. 3, p. 15), and the preparation method (suspension in sterile water) was carried out according to the instruction provided by the reagent supplier. […]
Fluorescence-Labeled Secondary Antibody: • Fluorescein isothiocyanate (FITC)-labeled anti-rabbit IgG (Sigma, 1:500 dilution) • Alexa-568-labeled anti-mouse IgG (1:500 dilution) […]

[5] = tested on: SH-SY5Y cells expressing pEGFP-TDP 162-414 (GFP-TDP 162-414); assay: Suppression of formation of intracellular TDP-43 inclusions by low-molecular compounds (GFP-TDP 162-414); conditions: enhanced concentration-dependently, 3 days after addition
Procedure: as §4, §5
as §6, with “transfection. As candidate inhibitors, methylene blue and dimebon were examined.” for “transfection.”
Fluorescence-Labeled Secondary Antibody: • Alexa-568-labeled anti-mouse IgG (1:500 dilution) […]

[6] = methylene blue 0.05 μM, FIGS. 19 and 20

SMILES: CC(C)C[C@@H](C=O)NC(=O)[C@H](CC(C)C)NC(=O)[C@H](CC(C)C)NC(=O)OCc1ccccc1 [MG132] (Cbz-Leu-Leu-Leu-aldehyde)
- inclusion formation / expression pattern, anti-TARDBP staining [1]: inclusions were found in the nucleus
- inclusion formation, anti-pS409/410 and anti-ubiquitin staining ([1]; inclusion diameter about 10 μm): emergence of intranuclear inclusions positive to both anti-pS409/410 and anti-ubiquitin
- inclusion formation, anti-TARDBP staining [2]: did not show significant difference from MG132-free cases
- inclusion formation, anti-TARDBP staining ([3]; 37° C.): did not show significant difference from MG132-free cases; also recorded: cytoplasmic inclusions were not observed
- inclusion formation, anti-pS409/410 staining [3]: anti-pS409/410-positive cytoplasmic inclusions were observed

SMILES: Cc1ccc2c(c1)c1c(n2CCc2ccc(C)nc2)CCN(C)C1 [dimebon]
- inhibition effect on formation of intracellular TDP-43 inclusions ([4]; dimebon 20 μM, FIGS. 21 and 22): inhibition effect of dimebon was also confirmed
- inhibition effect on formation of intracellular TDP-43 inclusions ([5]; dimebon 20 μM, FIGS. 21 and 22): inhibition effect of dimebon was also confirmed

SMILES: CN(C)c1ccc2nc3ccc(=[N+](C)C)cc-3sc2c1 [methylene blue]
- inhibition effect on formation of intracellular TDP-43 inclusions [4, 6]: inhibition effect of methylene blue was confirmed
- inhibition effect on formation of intracellular TDP-43 inclusions [5, 6]: inhibition effect of methylene blue was confirmed

SMILES: CC(C)C[C@@H](C=O)NC(=O)[C@H](CC(C)C)NC(=O)OCc1ccccc1 [zLL, carbobenzoxy-leucyl-leucinal]
- inclusion formation / expression pattern, anti-TARDBP staining [1]: no particular change was found in the expression pattern
- inclusion formation, anti-pS409/410 staining [3]: no intracellular inclusion was observed
